Laboratory results from ChEMBL document CHEMBL1909046, “DrugMatrix in vitro pharmacology data”.

Tests used:
[1] = molecular target: T1, Alpha-1D adrenergic receptor (Homo sapiens, UniProt P25100); type: cell membranes, HEK293, Membrane; further: in other assays of this panel Not Active means under 50% inhibition at 10 µM
T1 sequence (P25100 whole entry): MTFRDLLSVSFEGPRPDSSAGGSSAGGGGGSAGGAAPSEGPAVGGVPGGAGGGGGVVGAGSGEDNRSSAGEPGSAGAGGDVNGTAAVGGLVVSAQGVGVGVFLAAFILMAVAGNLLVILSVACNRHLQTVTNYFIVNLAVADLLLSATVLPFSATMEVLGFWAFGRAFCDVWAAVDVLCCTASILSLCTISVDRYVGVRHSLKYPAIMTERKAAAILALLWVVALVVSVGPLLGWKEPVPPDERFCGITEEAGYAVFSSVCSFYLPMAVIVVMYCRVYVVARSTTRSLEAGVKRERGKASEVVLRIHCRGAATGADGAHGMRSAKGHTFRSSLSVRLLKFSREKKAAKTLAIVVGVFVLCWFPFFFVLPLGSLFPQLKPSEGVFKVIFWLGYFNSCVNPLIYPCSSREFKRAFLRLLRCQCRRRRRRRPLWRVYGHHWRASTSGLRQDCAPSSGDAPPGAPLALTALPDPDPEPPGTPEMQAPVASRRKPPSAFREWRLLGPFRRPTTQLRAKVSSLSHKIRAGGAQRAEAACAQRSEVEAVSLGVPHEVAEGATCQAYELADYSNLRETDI

[2] = DRUGMATRIX: GABAA, Muscimol, Central radioligand binding (ligand: [3H] Muscimol); type: cell membranes, Rattus norvegicus, Wistar, Brain, Membrane; settings: Not Active = under 50% inhibition at 10 µM
[3] = molecular target: Beta-3 adrenergic receptor (Homo sapiens, UniProt P13945); assay: DRUGMATRIX: Adrenergic beta3 radioligand binding (ligand: [125I] Cyanopindolol); type: cell membranes, HEK293, Membrane; settings: Not Active = under 50% inhibition at 10 µM
[4] = molecular target: Platelet-activating factor receptor (Homo sapiens, UniProt P25105); type: tissue-based; further: in other assays of this panel Not Active means under 50% inhibition at 10 µM
[5] = molecular target: T2, Muscarinic acetylcholine receptor M2 (Homo sapiens, UniProt P08172); type: cell membranes, CHO-K1, Membrane; settings: cho-k1; further: in other assays of this panel Not Active means under 50% inhibition at 10 µM
T2 sequence (P08172 whole entry): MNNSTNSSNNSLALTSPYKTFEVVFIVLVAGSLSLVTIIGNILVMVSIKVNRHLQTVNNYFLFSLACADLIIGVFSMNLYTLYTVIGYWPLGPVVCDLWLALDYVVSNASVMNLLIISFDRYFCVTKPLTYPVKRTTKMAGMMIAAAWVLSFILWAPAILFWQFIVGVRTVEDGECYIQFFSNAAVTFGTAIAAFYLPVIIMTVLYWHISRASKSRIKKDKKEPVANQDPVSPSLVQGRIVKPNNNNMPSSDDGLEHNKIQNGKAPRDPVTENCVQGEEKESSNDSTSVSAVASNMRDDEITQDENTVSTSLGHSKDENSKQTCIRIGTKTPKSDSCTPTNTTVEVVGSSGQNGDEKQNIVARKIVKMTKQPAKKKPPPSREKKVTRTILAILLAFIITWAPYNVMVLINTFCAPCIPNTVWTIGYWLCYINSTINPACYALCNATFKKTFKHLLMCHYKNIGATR

Neutrophil elastase = molecular target: T3, Neutrophil elastase (Homo sapiens, UniProt P08246); type: tissue-based;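 further: inhibition of neutrophil elastase enzyme activity, measured with a p-nitroanilide-linked peptide substrate; in other assays of this panel Not Active means under 50% inhibition at 10 µM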
T3 sequence (P08246 whole entry): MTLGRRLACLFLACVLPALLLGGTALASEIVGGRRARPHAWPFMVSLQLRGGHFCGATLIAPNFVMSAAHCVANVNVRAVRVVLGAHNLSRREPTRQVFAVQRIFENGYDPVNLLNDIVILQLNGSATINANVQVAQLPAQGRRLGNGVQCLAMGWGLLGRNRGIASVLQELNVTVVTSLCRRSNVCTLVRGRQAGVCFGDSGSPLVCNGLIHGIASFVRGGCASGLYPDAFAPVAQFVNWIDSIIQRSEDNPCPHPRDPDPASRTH

Sequence of Platelet-activating factor receptor (P25105 whole entry): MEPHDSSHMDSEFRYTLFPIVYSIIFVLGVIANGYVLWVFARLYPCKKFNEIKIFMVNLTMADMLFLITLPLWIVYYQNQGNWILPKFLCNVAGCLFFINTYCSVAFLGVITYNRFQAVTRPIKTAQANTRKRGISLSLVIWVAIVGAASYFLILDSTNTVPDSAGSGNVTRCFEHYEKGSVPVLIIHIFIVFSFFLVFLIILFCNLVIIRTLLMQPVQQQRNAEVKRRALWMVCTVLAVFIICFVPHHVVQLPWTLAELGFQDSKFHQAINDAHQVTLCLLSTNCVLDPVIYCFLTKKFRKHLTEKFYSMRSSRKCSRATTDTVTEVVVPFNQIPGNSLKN
Sequence of Beta-3 adrenergic receptor (P13945 whole entry): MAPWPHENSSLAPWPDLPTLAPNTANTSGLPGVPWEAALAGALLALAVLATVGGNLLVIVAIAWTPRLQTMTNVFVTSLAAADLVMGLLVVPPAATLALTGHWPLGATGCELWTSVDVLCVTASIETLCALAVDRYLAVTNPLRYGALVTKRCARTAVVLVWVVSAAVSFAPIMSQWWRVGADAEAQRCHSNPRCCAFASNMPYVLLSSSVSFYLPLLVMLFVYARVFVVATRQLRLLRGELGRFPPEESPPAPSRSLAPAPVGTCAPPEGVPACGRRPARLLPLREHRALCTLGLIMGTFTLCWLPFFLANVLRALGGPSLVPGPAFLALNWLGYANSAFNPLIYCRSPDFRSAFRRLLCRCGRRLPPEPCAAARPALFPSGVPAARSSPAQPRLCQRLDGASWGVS

| SMILES | IC50 ([1]; hek293) | IC50 [2] | Ki [2] | IC50 ([3]; hek293) | IC50 [4] | IC50 [5] | IC50 (Neutrophil elastase) | IC50 ([1]; read-out: IC50) [nM] | Ki ([1]; read-out: Ki) [nM] | IC50 ([3]; read-out: IC50) [nM] | Ki ([3]; read-out: Ki) [nM] |
| --- | --- | --- | --- | --- | --- | --- | --- | --- | --- | --- | --- |
| O=C(OC[C@H]1O[C@@H](OC(=O)c2cc(O)c(O)c(OC(=O)c3cc(O)c(O)c(O)c3)c2)[C@H](OC(=O)c2cc(O)c(O)c(OC(=O)c3cc(O)c(O)c(O)c3)c2)[C@@H](OC(=O)c2cc(O)c(O)c(OC(=O)c3cc(O)c(O)c(O)c3)c2)[C@@H]1OC(=O)c1cc(O)c(O)c(OC(=O)c2cc(O)c(O)c(O)c2)c1)c1cc(O)c(O)c(OC(=O)c2cc(O)c(O)c(O)c2)c1 [TANNIC ACID] | Not Active | Not Active | Not Active | Not Active | Not Active | Not Active | Not Active | – | – | – | – |
| CN1C(=O)OC(C)(C)C1=O [TRIMETHADIONE] | Not Active | Not Active | Not Active | Not Active | Not Active | Not Active | Not Active | – | – | – | – |
| Cc1cn([C@H]2C=C[C@@H](CO)O2)c(=O)[nH]c1=O [STAVUDINE] | Not Active | Not Active | Not Active | Not Active | Not Active | Not Active | Not Active | – | – | – | – |
| CN1C[C@H](CNC(=O)OCc2ccccc2)C[C@@H]2c3cccc4c3c(cn4C)C[C@H]21 [METERGOLINE] | – | Not Active | Not Active | Not Active | Not Active | Not Active | Not Active | 136 | 67 | – | – |
| CCN(CC)C(=S)SSC(=S)N(CC)CC | Not Active | Not Active | Not Active | Not Active | Not Active | Not Active | Not Active | – | – | – | – |
| CC(C)(C)NC[C@H](O)COc1cccc2c1CCCC2=O [LEVOBUNOLOL] | Not Active | Not Active | Not Active | – | Not Active | Not Active | Not Active | – | – | 340 | 255 |
| Nc1nc(N)c2nc(-c3ccccc3)c(N)nc2n1 | Not Active | Not Active | Not Active | Not Active | Not Active | Not Active | Not Active | – | – | – | – |
| Cc1ccc(S(=O)(=O)NC(=O)NN2CCCCCC2)cc1 [TOLAZAMIDE] | Not Active | Not Active | Not Active | Not Active | Not Active | Not Active | Not Active | – | – | – | – |
| Cc1ccc(Cl)c(Nc2ccccc2C(=O)O)c1Cl [MECLOFENAMIC ACID] | Not Active | Not Active | Not Active | Not Active | Not Active | Not Active | Not Active | – | – | – | – |
| CO[C@@H]1[C@@H](OC)[C@H](C)[C@@](O)(CC(=O)O)O[C@H]1[C@H](C)[C@H]1O[C@@]2(CC[C@@](C)([C@H]3CC[C@@](C)([C@@H]4O[C@@H]([C@H]5O[C@](C)(O)[C@H](C)C[C@@H]5C)C[C@@H]4O[C@@H]4C[C@H](OC)[C@@H](OC)[C@H](C)O4)O3)O2)C[C@H](O)[C@H]1C.N [MADURAMICIN] | Not Active | Not Active | Not Active | Not Active | Not Active | Not Active | Not Active | – | – | – | – |
| CCC(C)(C)C(=O)O[C@H]1C[C@@H](C)C=C2C=C[C@H](C)[C@H](CC[C@@H]3C[C@@H](O)CC(=O)O3)[C@H]21 [SIMVASTATIN] | Not Active | Not Active | Not Active | Not Active | Not Active | Not Active | Not Active | – | – | – | – |
| C#C[C@]1(O)CC[C@H]2[C@@H]3[C@H](C)CC4=C(CCC(=O)C4)[C@H]3CC[C@@]21C [TIBOLONE] | Not Active | Not Active | Not Active | Not Active | Not Active | Not Active | Not Active | – | – | – | – |
| Cc1nnc(NS(=O)(=O)c2ccc(N)cc2)s1 [SULFAMETHIZOLE] | Not Active | Not Active | Not Active | Not Active | Not Active | Not Active | Not Active | – | – | – | – |
| C[C@]12CCC(=O)C[C@@H]1CC[C@@H]1[C@@H]2CC[C@]2(C)[C@@H](O)CC[C@@H]12 [STANOLONE] | Not Active | Not Active | Not Active | Not Active | Not Active | Not Active | Not Active | – | – | – | – |
| CO[C@@]12[C@H](COC(N)=O)C3=C(C(=O)C(C)=C(N)C3=O)N1C[C@@H]1N[C@@H]12 [MITOMYCIN] | Not Active | Not Active | Not Active | Not Active | Not Active | Not Active | Not Active | – | – | – | – |
| Cc1[nH]c(=O)c(C#N)cc1-c1ccncc1 [MILRINONE] | Not Active | Not Active | Not Active | Not Active | Not Active | Not Active | Not Active | – | – | – | – |
| CC(Cl)(Cl)Cl [TRICHLOROETHANE] | Not Active | Not Active | Not Active | Not Active | Not Active | Not Active | Not Active | – | – | – | – |
| CC[C@H](C)C(=O)O[C@H]1CCC=C2C=C[C@H](C)[C@H](CC[C@@H]3C[C@@H](O)CC(=O)O3)[C@H]21 [MEVASTATIN] | Not Active | Not Active | Not Active | Not Active | Not Active | Not Active | Not Active | – | – | – | – |
| CC(=O)O[C@]1(C(C)=O)CC[C@H]2[C@@H]3C[C@H](C)C4=CC(=O)CC[C@]4(C)[C@H]3CC[C@@]21C [MEDROXYPROGESTERONE ACETATE] | Not Active | Not Active | Not Active | Not Active | Not Active | Not Active | Not Active | – | – | – | – |
| CC[C@@]1(O)C(=O)OCc2c1cc1n(c2=O)Cc2cc3c(CN(C)C)c(O)ccc3nc2-1 [TOPOTECAN] | Not Active | Not Active | Not Active | Not Active | Not Active | Not Active | Not Active | – | – | – | – |
| CC#C[C@]1(O)CC[C@H]2[C@@H]3CCC4=CC(=O)CCC4=C3[C@@H](c3ccc(N(C)C)cc3)C[C@@]21C [MIFEPRISTONE] | Not Active | Not Active | Not Active | Not Active | Not Active | Not Active | Not Active | – | – | – | – |
| Cc1cnc(NC(=O)C2=C(O)c3ccccc3S(=O)(=O)N2C)s1 [MELOXICAM] | Not Active | Not Active | Not Active | Not Active | Not Active | Not Active | Not Active | – | – | – | – |
| O=[As][O-].[Na+] [SODIUM ARSENITE] | Not Active | Not Active | Not Active | Not Active | Not Active | Not Active | Not Active | – | – | – | – |
| Cc1cccc(C)c1NC(=O)C(C)N (centres undefined) [TOCAINIDE] | Not Active | Not Active | Not Active | Not Active | Not Active | Not Active | Not Active | – | – | – | – |
| COC(=O)Nc1nc2ccc(C(=O)c3ccccc3)cc2[nH]1 [MEBENDAZOLE] | Not Active | Not Active | Not Active | Not Active | Not Active | Not Active | Not Active | – | – | – | – |
| CCOC(=O)C1=C(C)NC(C)=C(C(=O)OCC)C1c1ccccc1/C=C/C(=O)OC(C)(C)C [LACIDIPINE] | Not Active | Not Active | Not Active | Not Active | Not Active | Not Active | Not Active | – | – | – | – |
